This passage reports IC50 results from US9549921B2, “Heterocyclic compounds and methods of use thereof for the treatment of hepatitis C” (priority 2014, dated 2017).

One test concerns HCV replicon genotype 1a. Briefly: HCV replicon assay, genotype 1a (cell ELISA for NS3/4A). The class given is cell-based, hepatitis C virus. In outline:
(§1)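 Readout is NS3/4A protein level from an antibody-based cell ELISA, serving as an indirect measure of replicon RNA; IC50 fitted with a four-parameter function relative to DMSO control. Replicon cells, kept under G418 beforehand, were plated with serial compound dilutions minus G418 for 96 hours.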
A general note: In antiviral work, replicon cells carry a viral genome segment that copies itself.

A further test relates to HCV replicon genotype 1b. Briefly: HCV replicon assay, genotype 1b (cell ELISA for NS3/4A). The test is classed as cell-based, hepatitis C virus. In outline:
as §1

Setting [1] is: Hepatitis C virus, 96 h, read-out: 1a IC50 (nM), HCV genotype 1a replicon cells, 96 hours incubation, NS3/4A ELISA readout, % of DMSO control.
Where [2] appears, read: Hepatitis C virus, 96 h, read-out: 1b IC50 (nM), HCV genotype 1b replicon cells, 96 hours incubation, NS3/4A ELISA readout, % of DMSO control.
[3] abbreviates: read-out: 1a IC50, HCV genotype 1a replicon cells, 96 hours incubation, NS3/4A ELISA readout, % of DMSO control.
Setting [4] is: read-out: 1b IC50, HCV genotype 1b replicon cells, 96 hours incubation, NS3/4A ELISA readout, % of DMSO control.

Molecules are shown by their SMILES. Read-outs that look alike come from different tables or passages of the source.

Consider `CNC(=O)c1c(-c2ccc(F)cc2)oc2cc(N(C)S(C)(=O)=O)c(C3CNCC(c4cc5c(F)cccc5[nH]4)N3)cc12` (centres unmarked) [Example 13, 5-(6-(4-fluoro-1H-indol-2-yl)piperazin-2-yl)-2-(4-fluorophenyl)-N-methyl-6-(N-methylmethylsulfonamido)benzofuran-3-carboxamide], for which the IC50 turned out to be 140 nM in the test on HCV replicon genotype 1a (setting [1]) and 165 nM in the test on HCV replicon genotype 1b (setting [2]).
With `CNC(=O)c1c(-c2ccc(F)cc2)oc2cc(N(C)S(C)(=O)=O)c([C@H]3CCCN(C(=O)c4cn5cc(Cl)cc(N)c5n4)C3)cc12` [Example 104, 5-{(3R)-1-[(8-amino-6-chloroimidazo[1,2-a]pyridin-2-yl)carbonyl]piperidin-3-yl}-2-(4-fluorophenyl)-N-methyl-6-[methyl(methylsulfonyl)amino]-1-benzofuran-3-carboxamide], the results for the IC50 in the test on HCV replicon genotype 1a (setting [1]) and with HCV replicon genotype 1b (setting [2]) were 284 nM and 136 nM, respectively.
The corresponding values for `CNC(=O)c1c(-c2ccc(F)cc2)oc2cc(N(C)S(C)(=O)=O)c([C@@H]3CCCN(C(=O)Cc4ccc(F)cc4)C3)cc12` (single isomer, unassigned) [Example 17, 2-(4-fluorophenyl)-5-(1-(2-(4-fluorophenyl)acetyl)piperidin-3-yl)-N-methyl-6-(N-methylmethylsulfonamido)benzofuran-3-carboxamide] are 138 nM and 58.2 nM.
The like results for `CNC(=O)c1c(-c2ccc(F)cc2)oc2cc(N(C)S(C)(=O)=O)c([C@@H]3CCCN(C(=O)c4ccc(F)cc4)C3)cc12` (single isomer, unassigned) [Example 19, 5-(1-(4-fluorobenzoyl)piperidin-3-yl)-2-(4-fluorophenyl)-N-methyl-6-(N-methylmethylsulfonamido)benzofuran-3-carboxamide] were, in that order, 43.8 nM and 50.8 nM.
The corresponding values for `CNC(=O)c1c(-c2ccc(F)cc2)oc2cc(N(C)S(C)(=O)=O)c([C@H]3CCCN(S(=O)(=O)Cc4ccc(F)cc4)C3)cc12` [Example 80, 5-{(3R)-1-[(4-fluorobenzyl)sulfonyl]piperidin-3-yl}-2-(4-fluorophenyl)-N-methyl-6-[methyl(methylsulfonyl)amino]-1-benzofuran-3-carboxamide] are 3.17 nM and 4.5 nM.
As to `CNC(=O)c1c(-c2ccc(F)cc2)oc2cc(N(C)S(C)(=O)=O)c([C@H]3CCCN(S(=O)(=O)c4ccc5ncsc5c4)C3)cc12` [Example 129, 5-[(3R)-1-(1,3-benzothiazol-6-ylsulfonyl)piperidin-3-yl]-2-(4-fluorophenyl)-N-methyl-6-[methyl(methylsulfonyl)amino]-1-benzofuran-3-carboxamide], the IC50 came out at 194 nM with HCV replicon genotype 1a (setting [1]) and 110 nM with HCV replicon genotype 1b (setting [2]).
The corresponding values for `CNC(=O)c1c(-c2ccc(F)cc2)oc2cc(N(C)S(C)(=O)=O)c([C@H]3CCCN(C(=O)C(c4ccccc4)N4CCOCC4)C3)cc12` (stereo partly drawn) [Example 98, 2-(4-fluorophenyl)-N-methyl-6-[methyl(methylsulfonyl)amino]-5-{(3R)-1-[morpholin-4-yl(phenyl)acetyl]piperidin-3-yl}-1-benzofuran-3-carboxamide] are 241 nM and 112 nM.
Take `CNC(=O)c1c(-c2ccc(F)cc2)oc2cc(N(C)S(C)(=O)=O)c([C@@H]3CCCN(c4nc5ncccc5o4)C3)cc12` (single isomer, unassigned) [Example 54, 2-(4-fluorophenyl)-N-methyl-6-(N-methylmethylsulfonamido)-5-(1-(oxazolo[4,5-b]pyridin-2-yl)piperidin-3-yl)benzofuran-3-carboxamide]: the IC50 in the test with HCV replicon genotype 1a (setting [3]) came out at 7.38 nM; with HCV replicon genotype 1b (setting [4]) it was 13.9 nM.
Turning to `CNC(=O)c1c(-c2ccc(F)cc2)oc2cc(N(C)S(C)(=O)=O)c([C@@H]3CCCN(S(=O)(=O)C4CCCCC4)C3)cc12` [Example 116, 5-[(3S)-1-(cyclohexylsulfonyl)piperidin-3-yl]-2-(4-fluorophenyl)-N-methyl-6-[methyl(methylsulfonyl)amino]-1-benzofuran-3-carboxamide], the IC50 with HCV replicon genotype 1a (setting [1]) amounted to 194 nM; in the test on HCV replicon genotype 1b (setting [2]), 31.7 nM.
As for `CNC(=O)c1c(-c2ccc(F)cc2)oc2cc(N(C)S(C)(=O)=O)c([C@H]3CCCN(C(=O)c4nc5ccc(F)cc5s4)C3)cc12` [Example 93, 5-{(3R)-1-[(6-fluoro-1,3-benzothiazol-2-yl)carbonyl]piperidin-3-yl}-2-(4-fluorophenyl)-N-methyl-6-[methyl(methylsulfonyl)amino]-1-benzofuran-3-carboxamide], the IC50 in the test with HCV replicon genotype 1a (setting [1]) is 181 nM; in the test on HCV replicon genotype 1b (setting [2]), 102 nM.
With `CNC(=O)c1c(-c2ccc(F)cc2)oc2cc(N(C)S(C)(=O)=O)c([C@@H]3CCCN(C(=O)c4nc5ccc(F)cc5s4)C3)cc12` [Example 75, 5-{1-[(6-fluoro-1,3-benzothiazol-2-yl)carbonyl]piperidin-3-yl}-2-(4-fluorophenyl)-N-methyl-6-[methyl(methylsulfonyl)amino]-1-benzofuran-3-carboxamide], the figures for the IC50 in the test on HCV replicon genotype 1a (setting [1]) and in the test with HCV replicon genotype 1b (setting [2]) were 72.3 nM and 12 nM, respectively.
Consider `CNC(=O)c1c(-c2ccc(F)cc2)oc2cc(N(C)S(C)(=O)=O)c(C3CCN(C)C(c4cc5c(F)cccc5[nH]4)C3)cc12` (centres unmarked) [Example 16, 5-(2-(4-fluoro-1H-indol-2-yl)-1-methylpiperidin-4-yl)-2-(4-fluorophenyl)-N-methyl-6-(N-methylmethylsulfonamido)benzofuran-3-carboxamide], for which the IC50 came to 333 nM in the test with HCV replicon genotype 1a (setting [1]) and 106 nM in the test with HCV replicon genotype 1b (setting [2]).
Regarding `CNC(=O)c1c(-c2ccc(F)cc2)oc2cc(N(C)S(C)(=O)=O)c([C@H]3CN(C(=O)c4cc5c(F)cccc5n4C)CCO3)cc12` (single isomer, unassigned) [Example 9, 5-(4-(4-fluoro-1-methyl-1H-indole-2-carbonyl)morpholin-2-yl)-2-(4-fluorophenyl)-N-methyl-6-(N-methylmethylsulfonamido)benzofuran-3-carboxamide], the IC50 with HCV replicon genotype 1a (setting [3]) was found to be 54 nM; with HCV replicon genotype 1b (setting [4]) it was 67.8 nM.
On to `CNC(=O)c1c(-c2ccc(F)cc2)oc2cc(N(C)S(C)(=O)=O)c([C@@H]3CCCN(C(=O)c4cc5cccc(F)c5[nH]4)C3)cc12` [Example 32, (S)-5-(1-(7-fluoro-1H-indole-2-carbonyl)piperidin-3-yl)-2-(4-fluorophenyl)-N-methyl-6-(N-methylmethylsulfonamido)benzofuran-3-carboxamide], for which the IC50 with HCV replicon genotype 1a (setting [1]) was determined as 53.1 nM; in the test with HCV replicon genotype 1b (setting [2]), 19.2 nM.
For the molecule `CNC(=O)c1c(-c2ccc(F)cc2)oc2cc(N(C)S(C)(=O)=O)c([C@@H]3CCCN(c4nc5ccccc5o4)C3)cc12` (single isomer, unassigned) [Example 48, 5-(1-(benzo[d]oxazol-2-yl)piperidin-3-yl)-2-(4-fluorophenyl)-N-methyl-6-(N-methylmethylsulfonamido)benzofuran-3-carboxamide], the IC50 came to 40.2 nM with HCV replicon genotype 1a (setting [3]) and 24.8 nM in the test with HCV replicon genotype 1b (setting [4]).
Consider `CNC(=O)c1c(-c2ccc(F)cc2)oc2cc(N(C)S(C)(=O)=O)c(C3CCCN(C(=O)[C@H](NC(=O)OC(C)(C)C)c4ccccc4F)C3)cc12` (single isomer, unassigned) [Example 28], for which the IC50 in the test on HCV replicon genotype 1a (setting [3]) stood at 23.9 nM; in the test with HCV replicon genotype 1b (setting [4]), 21.4 nM.
